Earlier results as cited in article PMC11887511 (Crystal Growth & Design, 2025).

Settings: no reference given

pKa1: 2.12 | pKa2: 2.90 | pKa[base]: 9.63
SMILES: O=C(O)CNCC(=O)O [IDA, iminodiacetic acid]
